Reference: publication PMC6274517, “Design, Synthesis and Structure-Activity Relationships of Novel Chalcone-1,2,3-triazole-azole Derivates as Antiproliferative Agents” (Molecules, 2016)
≈ marks a conversion by molar mass, not a printed value. Like-named read-outs stand apart in the source and are kept apart here.

Experiments:
[1] = system: EC-109; experiment: MTT antiproliferative assay, EC-109; type: cell-based, human; conditions: mean ± SD of three experiments
Protocol: (§1) In totally, a series of novel chalcone-1,2,3-triazole-azole derivatives were successfully synthesized, and their structures characterized by ^1H-NMR, ^13C-NMR, HRMS. Their in vitro antiproliferative activities were then tested, using a MTT assay, against three selected cancer cell lines (SK-N-SH, EC-109 and MGC-803) and compared with the well-known anticancer drug 5-fluorouracil.
(§2) All synthesized compounds were evaluated for their anticancer activity against three cancer cell lines, MGC-803 (human gastric cancer cell line), SK-N-SH (human neuroendocrine cancer cell line), and […] (human esophageal cancer cell line) using MTT assay method and compared with the well-known anticancer drug 5-fluorouracil.

[2] = system: MGC-803; experiment: MTT antiproliferative assay, MGC-803; type: cell-based, human; conditions: mean ± SD of three experiments
Protocol: as §1, §2

[3] = system: SK-N-SH; experiment: MTT antiproliferative assay, SK-N-SH; type: cell-based, human; conditions: 72 h exposure, mean ± SD of three experiments
Protocol: as §1, §2

[4] = system: SK-N-SH cells; experiment: Apoptosis analysis with Hoechst-33258 staining; type: cell-based, human; conditions: SK-N-SH cells, 5, 10 and 20 μM; 24 h / 48 h (legend of Figure 5)
Protocol: To explore cytotoxicity of I-21 in SK-N-SH cells, cell apoptosis was investigated with Hoechst 33258 staining.
Figure 5 Apoptosis analysis with Hoechst-33258 staining after a 48 h treatment of I-21 in SK-N-SH cell line at 5 μM, 10 μM and 20 μM.

[5] = system: Bcl-2 and Bax in SK-N-SH cells; experiment: Western blot of Bcl-2 and Bax; type: cell-based, human; conditions: 48 h treatment
Protocol: Antiproliferative agents that induce apoptosis in cancer cells are always preferred in antitumor drug discovery. Bcl-2 associated proteins have both anti-apoptotic and pro-apoptotic effects in vrious cancer cell lines. For the high potent cytotoxic activity against SK-N-SH cell line, compound I-21 was evaluated the level of Bcl-2 (apoptotic inhibitor) and Bax (apoptotic inducer). […] Further mechanism investigations are under way and will be reported in due course.
Figure 6 Expression of Bcl-2 and Bax in SK-N-SH cells after treatment by compound I-21 for 48 h.

[6] = system: GES-1; experiment: Cytotoxicity against normal GES-1 cells; type: cell-based, human; conditions: for selectivity between cancer and normal cells: MGC-803 versus GES-1; for IC50: normal human gastric epithelial cell line, 72 h exposure, mean ± SD of three experiments
Text: Compounds I-14 and I-21 were further examined for possible cytotoxicity against GES-1 (normal human gastric epithelial cell line).

[7] = system: SK-N-SH, EC-109 and MGC-803; experiment: MTT antiproliferative assay, three cancer cell lines together; type: cell-based, human; conditions: range across EC-109, SK-N-SH, read-out: IC50 values, range over the three cancer cell lines
Protocol: as §1, §2

[8] = system: MCF-7; conditions: cited from earlier work
[9] = system: K562 cells; parameters: method as in PMID 19837593; conditions: cited from earlier work
[10] = system: SMMC-7721; parameters: method as in PMID 21345546; conditions: cited from earlier work
[11] = Homo sapiens, ECa-109, 72 h exposure
[12] = Homo sapiens, MGC-803, 72 h exposure

Molecule | IC50 [2, 12] [µM] | IC50 ([3]; Homo sapiens, SK-N-SH) [µM] | melting point [°C] | IC50 [1, 11] [µM] | further results
O=C(/C=C/c1cccs1)c1ccc(OCCCn2cc(CSC3=NCCS3)nn2)cc1 [Compound I-16, (E)-1-(4-(3-(4-(((4,5-Dihydrothiazol-2-yl)thio)methyl)-1H-1,2,3-triazol-1-yl)propoxy)phenyl)-3-(thiophen-2-yl)prop-2-en-1-one] | 8.69 ± 0.42 | 11.2 ± 0.26 | 104 to 106 | 19.3 ± 0.79 | 
O=C(/C=C/c1ccc(Cl)cc1)c1ccc(OCCCn2cc(CSC3=NCCS3)nn2)cc1 [Compound I-13, (E)-3-(4-Chlorophenyl)-1-(4-(3-(4-(((4,5-dihydrothiazol-2-yl)thio)methyl)-1H-1,2,3-triazol-1-yl)propoxy)phenyl)prop-2-en-1-one] | 37.2 ± 0.85 | 19.3 ± 0.47 | 151 to 153 | > 100 | 
(E)-1-(4-(3-(4-(((1,3,4-Thiadiazol-2-yl)thio)methyl)-1H-1,2,3-triazol-1-yl)propoxy)phenyl)-3-(3,4,5-trimethoxyphenyl)prop-2-en-1-one [Compound I-21] |  |  |  |  | apoptotic morphological changes (Hoechst 33258 staining) [4]: characteristic apoptotic morphological changes; IC50 ([1]; 72 h exposure): 10.4 ± 0.24 µM; IC50 ([2]; 72 h exposure): 4.26 ± 0.32 µM; level of Bax [5]: increased the level of Bax; level of Bcl-2 [5]: reduced the level of Bcl-2; selectivity between cancer and normal cells [6]: good selectivity; IC50 [6]: 43.7 ± 1.35 µM; IC50 [3]: 1.52 ± 0.3 µM; IC50 [7]: 1.52 to 10.4 µM
O=C(/C=C/c1cccs1)c1ccc(OCCCn2cc(CSc3nncs3)nn2)cc1 [Compound I-23, (E)-1-(4-(3-(4-(((1,3,4-Thiadiazol-2-yl)thio)methyl)-1H-1,2,3-triazol-1-yl)propoxy)phenyl)-3-(thiophen-2-yl)prop-2-en-1-one] | 15.1 ± 0.85 | 21 ± 1.81 |  | 57.2 ± 1.63 | 
O=C(/C=C/c1ccccc1)c1ccccc1 [Compound 1] |  |  |  |  | IC50 MCF-7 [8]: 6.88 µg/mL (≈ 33 µM)
O=c1[nH]cc(F)c(=O)[nH]1 [Compound 5-FU, 5-fluorouracil, reference compound] | 7.14 ± 0.28 | 9.85 ± 0.76 |  | 10.3 ± 0.32 | 
COc1ccc(C(=O)/C=C/c2cc(OC)c(OC)c(OC)c2)cc1OC [Compound 2] |  |  |  |  | IC50 [9]: 1.1 µM
CN(C)CCN1C(=O)c2cccc3cc(-n4cc(-c5ccccc5)nn4)cc(c23)C1=O [Compound 3] |  |  |  |  | IC50 [8]: 0.348 µM; IC50 [10]: 0.258 µM
COc1cc(/C=C/C(=O)c2ccc(OCCCn3cc(CSC4=NCCS4)nn3)cc2)cc(OC)c1OC [Compound I-14, (E)-1-(4-(3-(4-(((4,5-Dihydrothiazol-2-yl)thio)methyl)-1H-1,2,3-triazol-1-yl)propoxy)phenyl)-3-(3,4,5-trimethoxyphenyl)prop-2-en-1-one] | 8.52 ± 0.56 | 5.87 ± 1.05 | 169 to 171 | 3.57 ± 0.22 | IC50 ([6]; GES1): > 64 µM; selectivity between cancer and normal cells [6]: good selectivity; IC50 ([7]; Homo sapiens): 3.57 to 8.52 µM
O=C(NCc1cn(Cc2cccc(Oc3ccccc3)c2)nn1)c1ccccn1 [Compound 4] |  |  |  |  | IC50 [8]: 0.046 µM

Further lines, with some results ahead:

IC50 [2, 12] [µM] | IC50 ([3]; Homo sapiens, SK-N-SH) [µM] | melting point [°C] | Molecule | IC50 [1, 11] [µM] | further results
50.1 ± 0.97 | 28.4 ± 1.59 | 149 to 150 | Cn1nnnc1SCc1cn(CCCOc2ccc(C(=O)/C=C/c3ccc(Cl)cc3)cc2)nn1 [Compound I-24, (E)-3-(4-Chlorophenyl)-1-(4-(3-(4-(((1-methyl-1H-tetrazol-5-yl)thio)methyl)-1H-1,2,3-triazol-1-yl)propoxy)phenyl)prop-2-en-1-one] | 24.9 ± 1.09 | 
46.3 ± 1.64 | 3.75 ± 1.21 | 143 to 145 | O=C(/C=C/c1ccc(Cl)cc1)c1ccc(OCCCn2cc(CSc3nncs3)nn2)cc1 [Compound I-20, (E)-1-(4-(3-(4-(((1,3,4-Thiadiazol-2-yl)thio)methyl)-1H-1,2,3-triazol-1-yl)propoxy)phenyl)-3-(4-chlorophenyl)prop-2-en-1-one] | 5.81 ± 0.21 | 
6.24 ± 0.05 | 14.8 ± 0.72 | 144 to 146 | O=C(/C=C/c1cccnc1)c1ccc(OCCCn2cc(CSc3nc4ccccc4s3)nn2)cc1 [Compound I-18, (E)-1-(4-(3-(4-((Benzo[d]thiazol-2-ylthio)methyl)-1H-1,2,3-triazol-1-yl)propoxy)phenyl)-3-(pyridin-3-yl)prop-2-en-1-one] | 24.6 ± 3.8 | 
24.4 ± 0.71 | 37.8 ± 0.91 |  | O=C(/C=C/c1cccs1)c1ccc(OCCCn2cc(CSc3nc4ccccc4s3)nn2)cc1 [Compound I-19, (E)-1-(4-(3-(4-((Benzo[d]thiazol-2-ylthio)methyl)-1H-1,2,3-triazol-1-yl)propoxy)phenyl)-3-(thiophen-2-yl)prop-2-en-1-one] | 38.8 ± 1.05 | 
5.56 ± 0.45 | 4.49 ± 0.45 | 151 to 153 | Cn1nnnc1SCc1cn(CCCOc2ccc(C(=O)/C=C/c3cccnc3)cc2)nn1 [Compound I-26, (E)-1-(4-(3-(4-(((1-Methyl-1H-tetrazol-5-yl)thio)methyl)-1H-1,2,3-triazol-1-yl)propoxy)phenyl)-3-(pyridin-3-yl)prop-2-en-1-one] | 11.8 ± 0.74 | 
38.1 ± 0.91 | 29.3 ± 0.85 | 129 to 130 | Cn1nnnc1SCc1cn(CCCOc2ccc(C(=O)/C=C/c3cccs3)cc2)nn1 [Compound I-27, (E)-1-(4-(3-(4-(((1-Methyl-1H-tetrazol-5-yl)thio)methyl)-1H-1,2,3-triazol-1-yl)propoxy)phenyl)-3-(thiophen-2-yl)prop-2-en-1-one] | > 100 | 
4.45 ± 0.82 | 12.4 ± 0.44 | 146 to 149 | O=C(/C=C/c1cccnc1)c1ccc(OCCCn2cc(CSc3nncs3)nn2)cc1 [Compound I-22, (E)-1-(4-(3-(4-(((1,3,4-Thiadiazol-2-yl)thio)methyl)-1H-1,2,3-triazol-1-yl)propoxy)phenyl)-3-(pyridin-3-yl)prop-2-en-1-one] | 14.6 ± 1.21 | 
63.8 ± 1.17 | 47.3 ± 1.57 | 149 to 151 | O=C(/C=C/c1cccnc1)c1ccc(OCCCn2cc(CSC3=NCCS3)nn2)cc1 [Compound I-15, (E)-1-(4-(3-(4-(((4,5-Dihydrothiazol-2-yl)thio)methyl)-1H-1,2,3-triazol-1-yl)propoxy)phenyl)-3-(pyridin-3-yl)prop-2-en-1-one] | 42.36 ± 0.18 | 
5.66 ± 0.55 | 6.98 ± 0.4 | 105 to 107 | COc1cc(/C=C/C(=O)c2ccc(OCCCn3cc(CSc4nnnn4C)nn3)cc2)cc(OC)c1OC [Compound I-25, (E)-1-(4-(3-(4-(((1-Methyl-1H-tetrazol-5-yl)thio)methyl)-1H-1,2,3-triazol-1-yl)propoxy)phenyl)-3-(3,4,5-trimethoxyphenyl)prop-2-en-1-one] | 5.28 ± 0.56 | 
38.2 ± 0.58 | > 100 | 172 to 174 | O=C(/C=C/c1ccc(Cl)cc1)c1ccc(OCCCn2cc(CSc3nc4ccccc4s3)nn2)cc1 [Compound I-17] | 9.54 ± 0.05 | 
